# “And” between values parts separate entries of the source, which are not always exact repeats. Equal entries are not always repeated.
# Assays:
# Experiment in all cases: ≥ marks a high value that may be exact or a test limit, other limits are often not marked, values filed in µg/mL are converted to µM
# Staphylococcus aureus = tested on: Staphylococcus aureus
# Staphylococcus aureus MR = tested on: Staphylococcus aureus MR
# Pseudomonas aeruginosa = tested on: Pseudomonas aeruginosa
# Escherichia coli = tested on: Escherichia coli
# Bacillus cereus = tested on: Bacillus cereus
# [1] = tested on: Staphylococcus aureus NCTC 10788
# [2] = tested on: Escherichia coli NCTC 10418
# [3] = tested on: Staphylococcus aureus ATCC 29213
# Escherichia coli MG1655 = tested on: Escherichia coli MG1655
# [4] = tested on: Pseudomonas aeruginosa KCTC 1637
# [5] = tested on: Escherichia coli KCTC 1682
# [6] = tested on: Staphylococcus aureus KCTC 1621
# [7] = tested on: Bacillus subtilis KCTC 3068
# [8] = tested on: Salmonella typhimurium KCTC 1926
# [9] = tested on: Staphylococcus epidermidis KCTC 1917
# Salmonella typhimurium = tested on: Salmonella typhimurium
# Candida albicans = tested on: Candida albicans
Structure (SMILES),MIC (Staphylococcus aureus) [µM],MIC [4] [µM],MIC [5] [µM],MIC [6] [µM],MIC [7] [µM],MIC [8] [µM],MIC [9] [µM],further results
CC[C@H](C)[C@H](NC(=O)[C@H](C)NC(=O)[C@H](CC(C)C)NC(=O)[C@H](Cc1c[nH]c2ccccc12)NC(=O)[C@H](CC(C)C)NC(=O)[C@H](C)N)C(=O)N[C@@H](CCCN=C(N)N)C(=O)N[C@@H](CCCCN)C(=O)N[C@@H](CCCN=C(N)N)C(N)=O [ALWLAIRKR],3.55,–,–,–,–,–,–,MIC (Staphylococcus aureus MR): ≥ 35.5 µM; MIC (Pseudomonas aeruginosa): 8.88 µM; MIC (Escherichia coli): 8.88 µM
CC[C@H](C)[C@H](NC(=O)[C@H](C)NC(=O)[C@H](CC(C)C)NC(=O)[C@H](Cc1ccc(O)cc1)NC(=O)[C@H](CC(C)C)NC(=O)[C@H](C)N)C(=O)N[C@@H](CCCN=C(N)N)C(=O)N[C@@H](CCCCN)C(=O)N[C@@H](CCCN=C(N)N)C(N)=O [ALYLAIRKR],2.72,–,–,–,–,–,–,MIC (Staphylococcus aureus MR): 27.2 µM; MIC (Pseudomonas aeruginosa): 3.63 µM; MIC (Escherichia coli): 3.63 µM
CC(C)C[C@H](NC(=O)[C@@H](N)Cc1ccccc1)C(=O)NCC(=O)NCC(=O)N[C@H](C(=O)N[C@@H](Cc1ccccc1)C(=O)N[C@@H](CCCCN)C(=O)N[C@@H](CCCCN)C(=O)N[C@@H](C)C(=O)N[C@@H](CO)C(=O)N[C@@H](CCCCN)C(=O)N[C@H](C(=O)N[C@@H](Cc1ccccc1)C(=O)NCC(=O)N[C@@H](C)C(=O)N[C@H](C(=O)N[C@@H](Cc1ccccc1)C(=O)NCC(=O)N[C@@H](CCCCN)C(=O)N[C@H](C(=O)O)C(C)C)C(C)C)C(C)C)C(C)C [FLGGVFKKASKVFGAVFGKV],> 123,–,–,–,–,–,–,MIC (Bacillus cereus): ≥ 61.3 µM; MIC (Escherichia coli): 15.3 µM
CC[C@H](C)[C@H](NC(=O)CNC(=O)[C@H](C)NC(=O)[C@@H](NC(=O)[C@H](C)NC(=O)[C@@H]1CCCN1C(=O)[C@H](CC(C)C)NC(=O)[C@@H](N)Cc1ccccc1)[C@@H](C)CC)C(=O)N[C@@H](CC(C)C)C(=O)N[C@@H](CO)C(=O)N[C@@H](CCC(N)=O)C(=O)N[C@@H](CC(C)C)C(=O)N[C@@H](Cc1ccccc1)C(N)=O [FLPAIAGILSQLF],–,–,–,–,–,–,–,MIC [1]: ≥ 200 µM; MIC [2]: ≥ 50 µM
CC[C@H](C)[C@H](NC(=O)CNC(=O)[C@@H]1CCCN1C(=O)[C@H](CC(C)C)NC(=O)[C@@H](N)Cc1ccccc1)C(=O)N[C@@H](CC(C)C)C(=O)N[C@@H](CCCCN)C(=O)N[C@H](C(=O)N[C@@H](C)C(=O)N[C@@H](C)C(=O)N[C@@H](CC(N)=O)C(=O)N[C@H](C(=O)N[C@H](C(=O)N1CCC[C@H]1C(=O)NCC(=O)N[C@H](C(=O)N[C@H](C(=O)N[C@H]1CSSC[C@@H](C(=O)O)NC(=O)[C@H](CCCCN)NC(=O)[C@H](CCCCN)NC(=O)[C@H]([C@@H](C)O)NC(=O)[C@H]([C@@H](C)CC)NC(=O)[C@H](C)NC1=O)[C@@H](C)CC)C(C)C)C(C)C)C(C)C)C(C)C [FLPGILKVAANVVPGVICAITKKC],–,–,–,–,–,–,–,MIC [1]: 4 µM and 8 µM; MIC [2]: ≥ 256 µM
CC[C@H](C)[C@H](NC(=O)[C@@H](NC(=O)[C@@H]1CCCN1C(=O)[C@@H](NC(=O)[C@@H](NC(=O)[C@H](Cc1cnc[nH]1)NC(=O)[C@@H]1CCCN1C(=O)[C@H](CC(C)C)NC(=O)[C@@H](NC(=O)[C@H](Cc1cnc[nH]1)NC(=O)[C@H](CCCCN)NC(=O)[C@H](C)NC(=O)[C@@H](NC(=O)[C@H](CO)NC(=O)CNC(=O)[C@H](CC(C)C)NC(=O)[C@@H](NC(=O)[C@H](CO)NC(=O)[C@H](CC(C)C)NC(=O)[C@H](CC(C)C)NC(=O)CN)C(C)C)C(C)C)C(C)C)C(C)C)C(C)C)C(C)C)C(=O)N[C@@H](C)C(=O)N[C@@H](CCC(=O)O)C(=O)N[C@@H](Cc1cnc[nH]1)C(=O)N[C@@H](CC(C)C)C(N)=O [GLLSVLGSVAKHVLPHVVPVIAEHL],–,–,–,–,–,–,–,MIC [3]: 8 µM; MIC (Escherichia coli MG1655): ≥ 120 µM
CC[C@H](C)[C@H](N)C(=O)NCC(=O)N[C@@H](CCCCN)C(=O)N[C@@H](CCCCN)C(=O)N[C@@H](Cc1ccccc1)C(=O)N[C@@H](CCCCN)C(=O)N[C@@H](CCCN=C(N)N)C(=O)N[C@H](C(=O)N[C@H](C(=O)N[C@@H](CCCCN)C(=O)N[C@@H](CCCN=C(N)N)C(=O)N[C@H](C(=O)N[C@@H](CCCCN)C(=O)N[C@@H](CCCCN)C(=O)N[C@@H](Cc1ccccc1)C(=O)N[C@@H](CC(C)C)C(=O)N[C@@H](CCCN=C(N)N)C(=O)N[C@@H](CCCCN)C(=O)N[C@@H](CC(C)C)C(=O)O)[C@@H](C)CC)C(C)C)[C@@H](C)CC [IGKKFKRIVKRIKKFLRKL],–,8,8,4,2,2,4,–
CC[C@H](C)[C@H](N)C(=O)N[C@@H](CC(C)C)C(=O)N1CCC[C@H]1C(=O)N[C@@H](Cc1c[nH]c2ccccc12)C(=O)N[C@@H](CCCCN)C(=O)N[C@@H](Cc1c[nH]c2ccccc12)C(=O)N1CCC[C@H]1C(=O)N[C@@H](CCCCN)C(=O)N[C@@H](CCCCN)C(=O)N1CCC[C@H]1C(=O)N[C@@H](Cc1c[nH]c2ccccc12)C(=O)N[C@@H](CCCN=C(N)N)C(=O)N[C@@H](CCCN=C(N)N)C(N)=O [ILPWKWPKKPWRR],–,22.3,2.79,2.79,5.58,2.79,2.79,–
CC[C@H](C)[C@H](N)C(=O)N[C@@H](CC(C)C)C(=O)N1CCC[C@H]1C(=O)N[C@@H](Cc1c[nH]c2ccccc12)C(=O)N[C@@H](CCCCN)C(=O)N[C@@H](Cc1c[nH]c2ccccc12)C(=O)N1CCC[C@H]1C(=O)N[C@@H](Cc1c[nH]c2ccccc12)C(=O)N[C@@H](C)C(=O)N1CCC[C@H]1C(=O)N[C@@H](C)C(=O)N[C@@H](CCCN=C(N)N)C(=O)N[C@@H](CCCN=C(N)N)C(N)=O [ILPWKWPWAPARR],11.9,–,–,–,–,–,–,MIC (Salmonella typhimurium): 11.9 µM; MIC (Candida albicans): 0.0012 µM; MIC (Pseudomonas aeruginosa): 23.9 µM; MIC (Escherichia coli): 119 µM

# Continued, in another order:
MIC (Staphylococcus aureus) [µM],MIC [4] [µM],MIC [5] [µM],MIC [6] [µM],MIC [7] [µM],MIC [8] [µM],MIC [9] [µM],Structure (SMILES),further results
–,10.3,10.3,2.58,5.16,5.16,5.16,CC[C@H](C)[C@H](N)C(=O)N[C@@H](CC(C)C)C(=O)N1CCC[C@H]1C(=O)N[C@@H](Cc1c[nH]c2ccccc12)C(=O)N[C@@H](CCCCN)C(=O)N[C@@H](Cc1c[nH]c2ccccc12)C(=O)N1CCC[C@H]1C(=O)N[C@@H](Cc1c[nH]c2ccccc12)C(=O)N[C@@H](Cc1c[nH]c2ccccc12)C(=O)N[C@@H](CCCCN)C(=O)N[C@@H](Cc1c[nH]c2ccccc12)C(=O)N[C@@H](CCCN=C(N)N)C(=O)N[C@@H](CCCN=C(N)N)C(N)=O [ILPWKWPWWKWRR],–
–,4,2,2,2,2,2,C[C@@H](O)[C@H](NC(=O)[C@H](CCCCN)NC(=O)[C@H](Cc1c[nH]c2ccccc12)NC(=O)[C@H](Cc1c[nH]c2ccccc12)NC(=O)[C@@H](NC(=O)[C@H](CCCCN)NC(=O)[C@@H](N)CCCCN)[C@@H](C)O)C(=O)N[C@@H](Cc1c[nH]c2ccccc12)C(=O)N[C@@H](Cc1c[nH]c2ccccc12)C(=O)N[C@H](C(=O)N[C@@H](CCCCN)C(=O)N[C@@H](Cc1c[nH]c2ccccc12)C(=O)N[C@@H](CO)C(=O)N[C@@H](CCC(N)=O)C(=O)N1CCC[C@H]1C(=O)N[C@@H](CCCCN)C(=O)N[C@@H](CCCCN)C(=O)O)[C@@H](C)O [KKTWWKTWWTKWSQPKK],–
–,3.79,7.58,7.58,3.79,1.9,3.79,CC[C@H](C)[C@H](NC(=O)[C@H](CCCN=C(N)N)NC(=O)[C@@H]1CCCN1C(=O)[C@H](CC(C)C)NC(=O)[C@@H](N)CCCN=C(N)N)C(=O)N[C@@H](Cc1c[nH]c2ccccc12)C(=O)N[C@@H](Cc1c[nH]c2ccccc12)C(=O)N[C@H](C(=O)N[C@@H](CCCN=C(N)N)C(=O)N[C@H](C(=O)N1CCC[C@H]1C(=O)N[C@@H](CCCN=C(N)N)C(N)=O)C(C)C)[C@@H](C)CC [RLPRIWWIRVPR],–
60.8,–,–,–,–,–,–,CC(C)C[C@H](NC(=O)[C@@H](NC(=O)[C@H](CCCN=C(N)N)NC(=O)[C@H](CCCN=C(N)N)NC(=O)[C@@H](NC(=O)[C@@H](NC(=O)[C@H](CCCN=C(N)N)NC(=O)[C@H](CCCN=C(N)N)NC(=O)[C@@H](NC(=O)[C@H](CC(C)C)NC(=O)[C@@H](N)CCCN=C(N)N)C(C)C)C(C)C)C(C)C)C(C)C)C(=O)N[C@@H](CCCN=C(N)N)C(N)=O [RLVRRVVRRVLR],MIC (Staphylococcus aureus MR): ≥ 63.4 µM
–,16,4,2,4,2,4,CC(C)C[C@H](NC(=O)[C@H](Cc1ccccc1)NC(=O)[C@H](CCCN=C(N)N)NC(=O)[C@H](CCCCN)NC(=O)[C@H](Cc1c[nH]c2ccccc12)NC(=O)[C@H](CCCN=C(N)N)NC(=O)[C@H](CCC(N)=O)NC(=O)[C@@H](NC(=O)[C@H](Cc1c[nH]c2ccccc12)NC(=O)[C@H](CCCN=C(N)N)NC(=O)[C@H](CCCCN)NC(=O)[C@@H](N)Cc1c[nH]c2ccccc12)C(C)C)C(=O)N[C@@H](CCCN=C(N)N)C(N)=O [WKRWVQRWKRFLR],–

# Source: DBAASP
